Laboratory results from patent US20230066011A1, “PYRROLOPYRIMIDINE DERIVATIVE, AND PHARMACEUTICAL COMPOSITION FOR PREVENTING OR TREATING PROTEIN KINASE-RELATED DISEASE COMPRISING SAME AS ACTIVE INGREDIENT” (VORONOI CO., LTD., priority 2019, published 2023).

What was measured:
[1] = target: T1, human GST-CLK1 (Homo sapiens, UniProt P49759); experiment: GST-CLK1 enzyme inhibition, ADP-Glo kinase assay; type: biochemical; settings: ATP 10 μM, GST-CLK1 129-end
T1 construct: purified human GST-CLK1 (129-end, SignalChem) enzyme; purchased SignalChem
T1 sequence (P49759 129-484 limits assumed): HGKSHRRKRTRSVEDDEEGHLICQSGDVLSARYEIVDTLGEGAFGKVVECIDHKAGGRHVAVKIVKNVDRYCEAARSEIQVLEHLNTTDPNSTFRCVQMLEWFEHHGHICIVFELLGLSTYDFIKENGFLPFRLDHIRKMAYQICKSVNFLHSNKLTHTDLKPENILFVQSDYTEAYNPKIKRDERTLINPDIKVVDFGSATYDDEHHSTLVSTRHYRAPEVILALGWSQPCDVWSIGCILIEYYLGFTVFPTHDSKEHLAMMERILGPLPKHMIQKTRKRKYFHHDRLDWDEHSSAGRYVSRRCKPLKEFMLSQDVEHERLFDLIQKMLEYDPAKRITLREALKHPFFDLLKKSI
Outline: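 Human GST-CLK1 (129-end, 3 ng) reacted with substrate and 10 μM ATP for 1 h at 25° C in 40 mM Tris-HCl pH 7.4, 20 mM MgCl2, 0.5 mg/mL BSA, 50 μM DTT. ADP-Glo luminescence was normalised to solvent control; IC50 (nM) from 3 data sets.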

[2] = target: LRRK2 (G2019S) (Homo sapiens, UniProt Q5S007, G2019S); experiment: LRRK2 G2019S enzyme inhibition, ADP-Glo kinase assay; type: biochemical; set-up: purchased SignalChem L10-12GG; settings: ATP 25 μM
Chain of LRRK2 (G2019S) (Q5S007 970-2527 G2019S limits assumed): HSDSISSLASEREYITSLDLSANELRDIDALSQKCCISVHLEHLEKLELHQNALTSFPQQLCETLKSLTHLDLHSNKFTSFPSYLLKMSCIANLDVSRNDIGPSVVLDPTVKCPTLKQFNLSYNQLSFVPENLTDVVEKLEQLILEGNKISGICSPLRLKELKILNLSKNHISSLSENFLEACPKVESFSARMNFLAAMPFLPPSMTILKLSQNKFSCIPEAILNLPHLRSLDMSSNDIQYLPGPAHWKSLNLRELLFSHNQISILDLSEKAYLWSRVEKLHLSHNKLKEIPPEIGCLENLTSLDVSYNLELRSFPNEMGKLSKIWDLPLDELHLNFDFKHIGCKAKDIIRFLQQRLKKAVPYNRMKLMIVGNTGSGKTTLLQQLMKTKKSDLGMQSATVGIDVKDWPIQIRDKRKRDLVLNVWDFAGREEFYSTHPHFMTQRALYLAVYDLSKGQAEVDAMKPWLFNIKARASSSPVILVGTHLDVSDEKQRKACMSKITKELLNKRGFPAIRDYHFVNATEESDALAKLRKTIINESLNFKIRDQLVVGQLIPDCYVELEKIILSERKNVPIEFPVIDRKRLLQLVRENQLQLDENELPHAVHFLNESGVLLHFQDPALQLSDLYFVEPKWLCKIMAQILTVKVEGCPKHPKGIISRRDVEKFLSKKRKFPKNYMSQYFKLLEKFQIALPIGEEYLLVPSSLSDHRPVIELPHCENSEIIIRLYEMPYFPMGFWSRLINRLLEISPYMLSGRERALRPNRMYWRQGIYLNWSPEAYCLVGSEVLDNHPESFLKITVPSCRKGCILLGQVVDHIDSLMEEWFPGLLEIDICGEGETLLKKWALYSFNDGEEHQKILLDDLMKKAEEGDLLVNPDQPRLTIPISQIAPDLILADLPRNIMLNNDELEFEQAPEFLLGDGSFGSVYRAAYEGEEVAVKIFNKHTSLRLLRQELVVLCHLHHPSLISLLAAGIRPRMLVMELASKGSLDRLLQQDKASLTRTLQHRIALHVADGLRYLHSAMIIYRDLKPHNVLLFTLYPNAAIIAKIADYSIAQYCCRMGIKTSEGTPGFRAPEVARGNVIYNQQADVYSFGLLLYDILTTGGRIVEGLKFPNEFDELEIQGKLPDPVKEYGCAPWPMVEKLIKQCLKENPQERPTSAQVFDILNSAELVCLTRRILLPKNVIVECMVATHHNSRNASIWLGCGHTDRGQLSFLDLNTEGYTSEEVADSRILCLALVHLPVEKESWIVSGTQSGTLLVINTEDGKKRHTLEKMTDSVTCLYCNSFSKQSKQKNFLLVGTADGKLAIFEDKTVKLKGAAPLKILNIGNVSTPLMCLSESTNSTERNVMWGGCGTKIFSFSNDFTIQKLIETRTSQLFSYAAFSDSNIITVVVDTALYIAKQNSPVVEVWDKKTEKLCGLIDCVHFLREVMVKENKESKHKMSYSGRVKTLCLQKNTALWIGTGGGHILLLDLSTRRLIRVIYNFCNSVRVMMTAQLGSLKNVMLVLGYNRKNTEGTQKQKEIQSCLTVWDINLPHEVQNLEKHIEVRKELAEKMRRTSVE
Outline: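 Purified human LRRK2 G2019S (16 ng) with 25 μM ATP and 0.2 μg substrate, 2 h at 25° C. in Tris-HCl pH 7.4, MgCl2, BSA, DTT buffer; compounds at 12 final concentrations, 50 μM down to 0.000001024 μM. ADP-Glo luminescence versus solvent control gave IC50.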

[3] = test system: MDA-MB-468 cell line; experiment: Inhibition of proliferation of MDA-MB-468 cancer cells (Cell Titer-Glo); type: cell-based; settings: Homo sapiens, MDA-MB-468, 72 hours
Experimental: (§1) To evaluate an inhibitory effect on the proliferation of cancer cells, each of an MDA-MB-231 cell line (Korean Cell Line Bank #30026) and an MDA-MB-468 cell line as triple-negative breast cancer cell lines, and SHP-77 (ATCC #CRL-2195) as a small-cell lung cancer cell line was cultured in DMEM (HyClone #SH30243) or an RPMI medium (HyClone #SH3027.01) to analyze a cell growth rate. More specifically, a cell line was plated on a 96-well flat bottom plate (Corning #3903) at a density of 2,000 cells/100 μL per well, and then treated with 11 concentrations of the Example compound, a solution of which was diluted 3-fold so that a final concentration of the compound was 10.000000, 3.333333, 1.111111, 0.370370, 0.123457, 0.041152, 0.013717, 0.004572, 0.001524, 0.000508, and 0.000169 μM. After 72 hours, each of the culture media was treated with 100 μL of Cell Titer-Glo (Promega G7573), and then cultured at room temperature for 10 minutes. Then, a degree of luminescence was measured using a microplate reader. A GI50 value was calculated from the measured degree of luminescence using Prism (Version 8.2 GraphPad) software.

[4] = test system: MDA-MB-231 cell line; experiment: Inhibition of proliferation of MDA-MB-231 cancer cells (Cell Titer-Glo); type: cell-based; settings: Homo sapiens, 72 hours
Experimental: as §1

[5] = target: T2, human GST-DYRK1A (Homo sapiens, UniProt Q13627); experiment: GST-DYRK1A enzyme inhibition, ADP-Glo kinase assay; type: biochemical; settings: ATP 10 μM, GST-DYRK1A full length, read-out: DYRK1 IC50
T2 construct: purified human GST-DYRK1A (full length, Thermo Scientifics) enzyme; purchased Thermo Scientifics
Outline: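 Full-length human GST-DYRK1A (10 ng) with 10 μM ATP and specific substrate in 40 mM Tris-HCl pH 7.4, 20 mM MgCl2, 0.5 mg/mL BSA, 50 μM DTT, 1 h at 25 °C. ADP formation read by ADP-Glo luminescence relative to solvent control; IC50 from three data sets.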

[6] = target: LRRK2 (Homo sapiens, UniProt Q5S007); experiment: LRRK2 enzyme inhibition, ADP-Glo kinase assay; type: biochemical; set-up: purchased Invitrogen PR8604B; settings: ATP 10 μM
Chain of LRRK2 (Q5S007 970-2527 limits assumed): as the sequence (Q5S007 970-2527 G2019S limits assumed) above, with S1050G counted along it
Outline: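 Purified human LRRK2 (25 ng) with 10 μM ATP and 0.2 μg substrate in 40 mM Tris-HCl pH 7.4, 20 mM MgCl2, 0.5 mg/mL BSA, 50 μM DTT, 2 h at 25° C. ADP-Glo luminescence; 12-point compound series from 50 μM final; IC50 relative to solvent control.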

[7] = test system: human DYRK1A and tau; experiment: Inhibition of tau phosphorylation, ClariCELL Kinase Cell-Based Assay, HEK 293 cells expressing human DYRK1A and tau; settings: for inhibition at 1 µM: HEK293, read-out: % inhibition at 1 uM, tau phosphorylation, compound 1 uM; for inhibition at 0.25 µM / inhibition at 0.5 µM: HEK293, tau phosphorylation; for inhibition at 0.25 µM: compound 0.25 uM; for inhibition at 0.5 µM: compound 0.5 uM
Experimental: An inhibitory effect on tau phosphorylation was determined using the ClariCELL™ Kinase Cell-Based Assay service (commercially available from CamaBio USA, Inc.). Human embryonic kidney (HEK 293) cells temporarily expressing human DYRK1A and tau were exposed to the compound, and then lysed to release cell proteins. In this case, the released tau was captured on a plate, and a degree of phosphorylation was quantified by ELISA using a tau phosphorylation-specific antibody.

SMILES	IC50 [1] [nM]	IC50 [2] [nM]	GI50 [3] [nM]	GI50 [4] [nM]	IC50 [5] [nM]	IC50 [6] [nM]	inhibition at 1 µM [7] [%]	inhibition at 0.25 µM [7] [%]	inhibition at 0.5 µM [7] [%]
COc1cc(P(C)(C)=O)ccc1Nc1nc(NC2CCCCC2)c2c(C#N)c[nH]c2n1 [Example 117, 4-(cyclohexylamino)-2-((4-(dimethylphosphoryl)-2-methoxyphenyl)amino)-7H-pyrrolo[2,3-d]pyrimidine-5-carbonitrile]	301 to 1000		< 50	< 50					
COCC(C)(C)Nc1nc(Nc2ccc(S(=O)(=O)N3CCC(N4CCOCC4)CC3)cc2OC)nc2[nH]cc(C(F)(F)F)c12 [Example 176, N^4-(1-methoxy-2-methylpropan-2-yl)-N^2-(2-methoxy-4-((4-morpholinopiperidin-1-yl)sulfonyl)phenyl)-5-(trifluoromethyl)-7H-pyrrolo[2,3-d]pyrimidine-2,4-diamine]	301 to 1000	301 to 1000		101 to 300	301 to 1000	301 to 1000			
O=C(c1ccc(Nc2nc(NC3CCCC3)c3cc[nH]c3n2)c2c1CCO2)N1CCC(N2CCOCC2)CC1 [Example 241, (7-((4-(cyclopentylamino)-7H-pyrrolo[2,3-d]pyrimidin-2-yl)amino)-2,3-dihydrobenzofuran-4-yl)(4-morpholinopiperidin-1-yl)methanone]	301 to 1000		301 to 1000		301 to 1000				
COc1cc(P2(=O)CCN(C3CC3)CC2)ccc1Nc1nc(NC2CCCC2)c2cc[nH]c2n1 [Example 242, 4-(4-((4-(cyclopentylamino)-7H-pyrrolo[2,3-d]pyrimidin-2-yl)amino)-3-methoxyphenyl)-1-cyclopropyl-1,4-azaphosphinane 4-oxide]	301 to 1000		301 to 1000		301 to 1000				
COc1cc(P2(=O)CCN(C3CCOCC3)CC2)ccc1Nc1nc(NC2CCCC2)c2cc[nH]c2n1 [Example 243, 4-(4-((4-(cyclopentylamino)-7H-pyrrolo[2,3-d]pyrimidin-2-yl)amino)-3-methoxyphenyl)-1-(tetrahydro-2H-pyran-4-yl)-1,4-azaphosphinane 4-oxide]	301 to 1000		301 to 1000		301 to 1000				
O=C(c1ccc(Nc2nc(NC3CCCCC3)c3cc[nH]c3n2)c2c1CCO2)N1CCOCC1 [Example 244, (7-((4-(cyclohexylamino)-7H-pyrrolo[2,3-d]pyrimidin-2-yl)amino)-2,3-dihydrobenzofuran-4-yl)(morpholino)methanone]	301 to 1000		< 50		301 to 1000	< 100			
O=C(c1ccc(Nc2nc(NC3CCCCC3)c3cc[nH]c3n2)c2c1CCO2)N1CCC(N2CCOCC2)CC1 [Example 245, (7-((4-(cyclohexylamino)-7H-pyrrolo[2,3-d]pyrimidin-2-yl)amino)-2,3-dihydrobenzofuran-4-yl)(4-morpholinopiperidin-1-yl)methanone]	301 to 1000		51 to 100		301 to 1000				
COc1cc(S(=O)(=O)N2CCOCC2)ccc1Nc1nc(NC(C)C)c2c(C#N)c[nH]c2n1 [Example 250, 4-(isopropylamino)-2-((2-methoxy-4-(morpholinosulfonyl)phenyl)amino)-7H-pyrrolo[2,3-d]pyrimidine-5-carbonitrile]	301 to 1000		< 50		301 to 1000	< 100			
CC[C@H](C)Nc1nc(Nc2ccc(S(=O)(=O)N3CCC(N4CCOCC4)CC3)cc2OC)nc2[nH]cc(C#N)c12 [Example 263, (S)-4-(sec-butylamino)-2-((2-methoxy-4-((4-morpholinopiperidin-1-yl)sulfonyl)phenyl)amino)-7H-pyrrolo[2,3-d]pyrimidine-5-carbonitrile]	301 to 1000		51 to 100	< 50	301 to 1000				
N#Cc1c[nH]c2nc(Nc3ccc(C(=O)N4CCOCC4)c4c3OCC4)nc(NC3CCCCC3)c12 [Example 321, 4-(cyclo-hexylamino)-2-((4-(morpholine-4-carbonyl)-2,3-dihydrobenzo-furan-7-yl)amino)-7H-pyrrolo[2,3-d]pyrimidine-5-carbonitrile]	101 to 300		< 50		301 to 1000	101 to 300			

Second part, led by results:

IC50 [1] [nM]	IC50 [2] [nM]	GI50 [3] [nM]	GI50 [4] [nM]	IC50 [5] [nM]	IC50 [6] [nM]	SMILES	inhibition at 1 µM [7] [%]	inhibition at 0.25 µM [7] [%]	inhibition at 0.5 µM [7] [%]
101 to 300	< 100	< 50	< 50	301 to 1000		COc1cc(S(=O)(=O)N2CCC(N3CCOCC3)CC2)ccc1Nc1nc(NC(C)C)c2c(C#N)c[nH]c2n1 [Example 85, 4-(isopropylamino)-2-((2-methoxy-4-((4-morpholinopiperidin-1-yl)sulfonyl)phenyl)amino)-7H-pyrrolo[2,3-d]pyrimidine-5-carbonitrile]			
< 100		< 50		301 to 1000	< 100	N#Cc1c[nH]c2nc(Nc3ccc(C(=O)N4CCOCC4)c4c3OCC4)nc(NC3CCCC3)c12 [Example 319, 4-(cyclo-pentylamino)-2-((4-(morpholine-4-carbonyl)-2,3-dihydrobenzo-furan-7-yl)amino)-7H-pyrrolo[2,3-d]pyrimidine-5-carbonitrile]			
< 100		301 to 1000		< 100		N#Cc1c[nH]c2nc(Nc3ccc(C(=O)N4CCC(N5CCOCC5)CC4)c4c3OCC4)nc(NC3CCCC3)c12 [Example 320, 4-(cyclo-pentylamino)-2-((4-(4-morpholino-piperidine-1-carbonyl)-2,3-dihydro-benzofuran-7-yl)amino)-7H-pyrrolo[2,3-d]pyrimidine-5-carbonitrile]			
< 100	< 100			< 100	< 100	N#Cc1c[nH]c2nc(Nc3ccc(C(=O)N4CCC(N5CCOCC5)CC4)c4c3OCC4)nc(NC3CCCCC3)c12 [Example 322, 4-(cyclo-hexylamino)-2-((4-(4-morpholino-piperidine-1-carbonyl)-2,3-dihydro-benzofuran-7-yl)amino)-7H-pyrrolo[2,3-d]pyrimidine-5-carbonitirle]	64.3	-10.5	34.2
< 100		301 to 1000		< 100	< 100	COCCNc1nc(Nc2ccc(P3(=O)CCN(C4CC4)CC3)cc2OC)nc2[nH]cc(C(F)(F)F)c12 [Example 412, 1-cyclopropyl-4-(3-methoxy-4-((4-((2-methoxyethyl)amino)-5-(trifluoromethyl)-7H-pyrrolo[2,3-d]pyrimidin-2-yl)amino)phenyl)-1,4-azaphosphinane 4-oxide]			
< 100				< 100	< 100	CCNc1nc(Nc2ccc(P3(=O)CCN(C4CCOCC4)CC3)cc2OC)nc2[nH]cc(C(F)(F)F)c12 [Example 439, 4-(4-((4-(ethylamino)-5-(trifluoromethyl)-7H-pyrrolo[2,3-d]pyrimidin-2-yl)amino)-3-methoxyphenyl)-1-(tetrahydro-2H-pyran-4-yl)-1,4-azaphosphinane 4-oxide]	55.7	18.8	43.6
